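Briefly, cells in 96-well plates were exposed to five compound concentrations for 48 h, and endpoints were estimated by linear interpolation. GI50: concentration for 50% inhibition of growth. TGI: concentration producing complete growth inhibition.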
Tests used:
Experiment in all cases: growth of human tumour cells (NCI), 48 h
SK-OV-3 ovarian = test system: SK-OV-3 ovarian
786-0 renal = test system: 786-0 renal
OVCAR-3 ovarian = test system: OVCAR-3 ovarian
A498 renal = test system: A498 renal
A549 NSCLC = test system: A549 NSCLC
RXF 393 renal = test system: RXF 393 renal
MCF7 breast = test system: MCF7 breast
HL-60(TB) leukemia = test system: HL-60(TB) leukemia
MDA-MB-231 breast = test system: MDA-MB-231 breast
BT-549 breast = test system: BT-549 breast

SMILES | TGI (SK-OV-3 ovarian) | TGI (786-0 renal) | TGI (OVCAR-3 ovarian) | TGI (A498 renal) | TGI (A549 NSCLC) | TGI (RXF 393 renal) | TGI (MCF7 breast) | TGI (HL-60(TB) leukemia) | TGI (MDA-MB-231 breast) | GI50 (786-0 renal) | GI50 (OVCAR-3 ovarian) | GI50 (A498 renal) | GI50 (A549 NSCLC) | GI50 (BT-549 breast) | TGI (BT-549 breast) | GI50 (RXF 393 renal) | GI50 (HL-60(TB) leukemia) | GI50 (SK-OV-3 ovarian) | GI50 (MCF7 breast) | GI50 (MDA-MB-231 breast)
C=CO/N=[N+](\[O-])N(CC)CC | > 100 µM | > 100 µM | > 100 µM | > 100 µM | > 100 µM | > 100 µM | > 100 µM | > 100 µM | > 100 µM |  |  |  |  |  |  |  |  |  |  | 
Cc1ccc(/C=C/c2c(C(=O)/C=C/c3ccccc3)c(C)nc3ccccc23)cc1 |  | 3.05 µM | 2.88 µM | 3.23 µM | 5.6 µM | 2.88 µM |  | 4.89 µM |  | 1.63 µM | 1.51 µM | 1.75 µM | 2.04 µM | 1.75 µM | 4.36 µM | 1.53 µM | 2.04 µM |  |  | 
CCC[CH2][Sn]([CH2]CCC)([O]C(=O)c1cc(OC)c(OC)cc1OC)[O][Sn]([CH2]CCC)([CH2]CCC)[O]C(=O)c1cc(OC)c(OC)cc1OC | 2.58 µM | 0.698 µM | 2.07 µM | 1.76 µM | 3.5 µM | 0.304 µM |  | 1.31 µM |  | 0.24 µM | 0.798 µM | 0.508 µM | 1.67 µM |  |  | 0.151 µM | 0.288 µM | 1.21 µM |  | 
Cc1cn2c(/C=C3/C(=O)Nc4c3ccc3ccccc43)c(C(F)(F)F)nc2s1 | 69.3 µM | 39 µM | 10.2 µM | > 100 µM | > 100 µM | 8.35 µM | > 100 µM | 32.4 µM |  | 1.49 µM | 0.381 µM | 1.7 µM | 1.18 µM | 1.18 µM | > 100 µM | 2.24 µM | 0.54 µM | 1.25 µM | 0.449 µM | 
CCCn1c2c(c3c(O)cccc31)C(=O)c1ccccc1-2 | > 100 µM | 52.2 µM | > 100 µM |  | > 100 µM |  | > 100 µM |  | 73.8 µM | 14.6 µM | 31.3 µM |  | 21.8 µM |  |  |  |  | 23.7 µM | 58 µM | 22.1 µM
Oc1c(C(Nc2ccccc2Br)c2ccccc2)ccc2cccnc12 (configuration not stated) | 78.5 µM | 6.41 µM | 23.9 µM | 25.6 µM | > 100 µM | 20.9 µM | 65.1 µM | 6.25 µM | 58.9 µM | 2.22 µM | 5.37 µM | 2.04 µM | 2.46 µM |  |  | 1.97 µM | 2.34 µM | 3.24 µM | 1.56 µM | 3.9 µM
O=C(Oc1cccc(Cl)c1)c1ccccc1Nc1ccnc(C(F)(F)F)c1 |  | 11.4 µM | 18.1 µM |  | 55.1 µM |  | 20 µM | > 100 µM | 4.7 µM | 3.53 µM | 3.8 µM |  | 18.1 µM | 6.77 µM | 27.6 µM |  | 12.8 µM |  | 4.78 µM | 1.69 µM
C=CCn1c(=S)sc2c(C(=O)OCC)c3c(C)cc(C)cn3c2c1=O | > 100 µM | > 100 µM | > 100 µM |  | > 100 µM | > 100 µM |  | > 100 µM |  |  |  |  |  |  |  |  |  |  |  | 
Cc1c(C(=O)C/C(=N/NC(=O)c2ccccc2)C(=O)Nc2ccc(Cl)cc2)[n+](=O)c2ccccc2n1[O-] | > 100 µM | > 100 µM | > 100 µM | > 100 µM | > 100 µM | > 100 µM |  | 56.4 µM |  |  |  |  |  |  |  |  |  |  |  | 
COc1cc(-c2nc3ccccc3s2)ccc1OCCCCOc1cc2c(cc1OC)C(=O)N1CCC[C@H]1C=N2 | 5.44 µM | 2.17 µM | 4.78 µM | 4.16 µM | 7.91 µM | 0.698 µM | 3.57 µM | 4.98 µM | 3.09 µM | 0.9 µM | 0.728 µM | 1.6 µM | 2.8 µM |  |  | 0.24 µM | 0.93 µM | 2.66 µM | 0.471 µM | 0.911 µM
Cc1cc(N(CCC#N)S(=O)(=O)c2ccccc2)ccc1/C=C1\N=C(c2ccc(Cl)cc2)OC1=O |  | > 100 µM | > 100 µM | > 100 µM | > 100 µM | > 100 µM |  | > 100 µM |  |  |  |  |  |  |  |  |  |  |  | 
COc1cc2c(cc1OC)-c1ncc3c(OC)ccc(OC)c3c1C2 | 98.7 µM | > 100 µM | 46.8 µM |  | > 100 µM | 48.9 µM |  |  | > 100 µM | 49.2 µM | 15.4 µM |  | 16.1 µM | 11.1 µM | 32.5 µM | 16.4 µM |  | 37.3 µM |  | > 100 µM
COc1cc(CNc2nc3c(N)cc(C(F)(F)F)cc3nc2-c2ccccc2)cc(OC)c1OC | > 100 µM | > 100 µM | > 100 µM | > 100 µM | > 100 µM | 69.4 µM |  | > 100 µM |  |  |  |  |  |  |  |  | > 100 µM | > 100 µM |  | 
C/C(CC(=O)NCCc1ccccc1)=N\NS(=O)(=O)c1ccc(C)cc1 | > 100 µM | > 100 µM | > 100 µM | > 100 µM | > 100 µM | > 100 µM |  | > 100 µM |  |  |  |  |  |  |  |  |  |  |  | 
CCOC(=O)NC(=O)c1cn(CCN2CCN(C(=O)CNC(=O)CNC(=O)Cn3cc(C(=O)NC(=O)OCC)c(=O)[nH]c3=O)CC2)c(=O)[nH]c1=O | > 100 µM | > 100 µM | > 100 µM | > 100 µM | > 100 µM |  |  | > 100 µM |  |  |  |  |  |  |  |  |  |  |  | 
O=C1C2C(C(=O)N1c1ccccc1)C1c3ccccc3C2C2C(=O)N(c3ccccc3)C(=O)C21 (configuration not stated) | > 100 µM | > 100 µM | > 100 µM | > 100 µM | > 100 µM | > 100 µM |  | 44.9 µM |  |  |  |  |  |  |  |  |  |  |  | 
CC(C)C1CO[C@]2(C)CCC(=O)N12 (some centres not stated) | > 100 µM | > 100 µM | > 100 µM |  | > 100 µM | > 100 µM |  | > 100 µM |  |  |  |  |  |  |  |  |  |  |  | 
COc1ccccc1N=Nc1c(-c2ccccc2)nn(C(=O)CC(=O)Nc2cccc(C)c2)c1-c1ccccc1 |  | > 100 µM | 53.9 µM | > 100 µM | > 100 µM | > 100 µM |  | 38 µM |  |  |  |  |  |  |  |  |  |  |  | 
Cc1ccc(S(=O)(=O)N/N=C(\c2nc3ccc(Cl)cc3[nH]c2=O)C(O)c2ccco2)cc1 (configuration not stated) |  | > 100 µM | > 100 µM | > 100 µM | > 100 µM | > 100 µM |  | > 100 µM |  |  |  |  |  |  |  |  |  |  |  | 
